Laboratory results published in US20260285855A1, “HETEROARYL DERIVATIVES AS DDRS INHIBITORS” (CHIESI FARMACEUTICI S.P.A., priority 2023, published 2026).

Assays:
DDR1 = molecular target: T1, DDR1 (Homo sapiens, UniProt Q08345); experiment: LanthaScreen Europium Kinase Binding assay, DDR1; details: 5 nM DDR1, 20 nM Kinase Tracer 178, 1 h at rt; Ki from IC50 by Cheng-Prusoff; read-out: Ki DDR1
T1 construct: purchased Carna Biosciences
Procedure: (§1) DDR1 and DDR2 binding assays were performed using Life Technologies LanthaScreen™ Europium Kinase Binding assay. […] IC50 values were determined in GraphPad Prism 7.0 software, using 4 parameter model: log (inhibitor) vs. response. IC50 values were converted in Ki using the Cheng-Prusoff equation (Ki-IC50/(1+ [Tracer]/Kd).

DDR2 = molecular target: T2, DDR2 (Homo sapiens, UniProt Q16832); experiment: LanthaScreen Europium Kinase Binding assay, DDR2; details: 5 nM DDR2, 10 nM Kinase Tracer 178, 1 h at rt; Ki from IC50 by Cheng-Prusoff; read-out: Ki DDR2
T2 construct: purchased Life Technologies
T2 sequence (Q16832 22-855): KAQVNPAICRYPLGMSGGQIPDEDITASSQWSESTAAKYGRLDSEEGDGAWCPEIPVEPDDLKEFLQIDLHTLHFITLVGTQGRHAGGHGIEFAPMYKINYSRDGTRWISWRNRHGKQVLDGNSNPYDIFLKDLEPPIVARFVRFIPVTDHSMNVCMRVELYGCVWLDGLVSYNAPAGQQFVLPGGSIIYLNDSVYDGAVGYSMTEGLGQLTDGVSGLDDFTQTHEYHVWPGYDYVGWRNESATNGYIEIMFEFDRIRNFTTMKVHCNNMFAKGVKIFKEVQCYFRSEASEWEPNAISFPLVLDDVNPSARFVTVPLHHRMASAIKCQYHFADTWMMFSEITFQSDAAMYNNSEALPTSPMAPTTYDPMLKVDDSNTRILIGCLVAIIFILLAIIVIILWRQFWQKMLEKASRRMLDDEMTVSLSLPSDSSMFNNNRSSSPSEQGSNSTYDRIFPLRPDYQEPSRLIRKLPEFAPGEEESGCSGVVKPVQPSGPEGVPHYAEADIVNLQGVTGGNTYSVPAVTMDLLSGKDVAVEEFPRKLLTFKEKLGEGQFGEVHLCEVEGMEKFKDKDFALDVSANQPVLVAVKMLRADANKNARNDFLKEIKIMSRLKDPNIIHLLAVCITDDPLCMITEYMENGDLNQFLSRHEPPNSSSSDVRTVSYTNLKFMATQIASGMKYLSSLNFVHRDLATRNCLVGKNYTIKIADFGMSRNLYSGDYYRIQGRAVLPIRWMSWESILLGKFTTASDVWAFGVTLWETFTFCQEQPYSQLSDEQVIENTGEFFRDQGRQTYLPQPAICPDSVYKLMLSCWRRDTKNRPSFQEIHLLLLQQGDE
Procedure: as §1

T1 sequence (Q08345 19-913): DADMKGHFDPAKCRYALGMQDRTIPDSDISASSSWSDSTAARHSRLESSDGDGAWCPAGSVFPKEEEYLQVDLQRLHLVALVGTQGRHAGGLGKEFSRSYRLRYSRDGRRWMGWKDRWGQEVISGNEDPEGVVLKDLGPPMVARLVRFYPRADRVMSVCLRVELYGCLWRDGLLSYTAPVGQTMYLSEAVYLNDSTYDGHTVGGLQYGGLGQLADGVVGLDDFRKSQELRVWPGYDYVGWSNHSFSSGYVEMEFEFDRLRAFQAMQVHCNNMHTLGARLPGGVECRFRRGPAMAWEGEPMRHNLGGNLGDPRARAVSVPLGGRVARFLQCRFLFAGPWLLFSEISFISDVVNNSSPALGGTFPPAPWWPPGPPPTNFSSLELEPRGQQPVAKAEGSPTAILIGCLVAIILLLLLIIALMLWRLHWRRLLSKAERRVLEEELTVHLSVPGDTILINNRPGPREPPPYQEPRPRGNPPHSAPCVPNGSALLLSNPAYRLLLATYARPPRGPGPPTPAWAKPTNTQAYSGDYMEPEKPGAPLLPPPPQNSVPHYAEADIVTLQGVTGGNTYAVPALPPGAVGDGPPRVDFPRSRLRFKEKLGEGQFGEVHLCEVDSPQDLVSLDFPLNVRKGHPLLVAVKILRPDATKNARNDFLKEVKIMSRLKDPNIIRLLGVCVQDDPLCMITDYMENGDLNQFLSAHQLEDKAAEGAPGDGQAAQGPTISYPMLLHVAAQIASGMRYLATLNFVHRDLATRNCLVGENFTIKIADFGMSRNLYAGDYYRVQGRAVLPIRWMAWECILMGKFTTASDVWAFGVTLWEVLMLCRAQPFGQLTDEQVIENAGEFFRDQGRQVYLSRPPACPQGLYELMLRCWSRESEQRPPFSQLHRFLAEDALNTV

Cn1ccn2ncc(C(=O)N3CC4(CC(CC(=O)Nc5cc(OC(F)(F)F)ccc5F)C4)C3)c12 [Example 276, N-(2-fluoro-5-(trifluoromethoxy)phenyl)-2-(2-(1-methyl-1H-imidazo[1,2-b]pyrazole-7-carbonyl)-2-azaspiro[3.3]heptan-6-yl)acetamide]
Ki (DDR1): < 5 nM | Ki (DDR2): < 5 nM

CC1(NC(=O)Nc2cccc(C(F)(F)F)c2)CC2(CN(C(=O)c3ncnc4ccsc34)C2)C1 [Example 191]
Ki (DDR1): < 5 nM | Ki (DDR2): 5 to 25 nM

CN(C(=O)Nc1cc(CO)cc(C(F)(F)F)c1)C1CC2(C1)CN(C(=O)c1cnn3ccsc13)C2 [Example 94, 3-(3-(hydroxymethyl)-5-(trifluoromethyl)phenyl)-1-methyl-1-(2-(pyrazolo[5,1-b]thiazole-7-carbonyl)-2-azaspiro[3.3]heptan-6-yl)urea]
Ki (DDR1): < 5 nM | Ki (DDR2): 5 to 25 nM

Cn1ccn2ncc(C(=O)N3CC4(CC(NC(=O)Nc5cc(C(F)(F)F)ccn5)C4)C3)c12 [Example 75, 1-(2-(1-methyl-1H-imidazo[1,2-b]pyrazole-7-carbonyl)-2-azaspiro[3.3]heptan-6-yl)-3-(4-(trifluoromethyl)pyridin-2-yl)urea]
Ki (DDR1): < 5 nM | Ki (DDR2): 5 to 25 nM

O=C(Nc1cccc(C(F)(F)F)c1)NC1CC2(C1)CN(C(=O)c1cnn3ccc(N4CCC(O)C4)cc13)C2 (stereo not drawn) [Example 185, 1-(2-(5-(3-hydroxypyrrolidin-1-yl)pyrazolo[1,5-a]pyridine-3-carbonyl)-2-azaspiro[3.3]heptan-6-yl)-3-(3-(trifluoromethyl)phenyl)urea]
Ki (DDR1): < 5 nM | Ki (DDR2): < 5 nM

CSCn1ccn2ncc(C(=O)N3CC4(CC(NC(=O)Nc5cccc(C(F)(F)F)c5)C4)C3)c12 [Example 196, 1-(2-(1-((methylthio)methyl)-1H-imidazo[1,2-b]pyrazole-7-carbonyl)-2-azaspiro[3.3]heptan-6-yl)-3-(3-(trifluoromethyl)phenyl)urea]
Ki (DDR1): < 5 nM | Ki (DDR2): 5 to 25 nM

Cn1ccn2ncc(C(=O)N3CC4(CC(OC(=O)Nc5cccc(C(F)(F)F)c5)C4)C3)c12 [Example 143, 2-(1-methyl-1H-imidazo[1,2-b]pyrazole-7-carbonyl)-2-azaspiro[3.3]heptan-6-yl(3-(trifluoromethyl)phenyl)carbamate]
Ki (DDR1): < 5 nM | Ki (DDR2): < 5 nM

O=C(Nc1cc(C(F)(F)F)ncn1)OC1CC2(C1)CN(C(=O)c1cnn3ccsc13)C2 [Example 292, 2-(pyrazolo[5,1-b]thiazole-7-carbonyl)-2-azaspiro[3.3]heptan-6-yl(6-(trifluoromethyl)pyrimidin-4-yl)carbamate]
Ki (DDR1): < 5 nM | Ki (DDR2): 5 to 25 nM

Cn1ccn2ncc(C(=O)N3CC4(CC(NC(=O)Nc5ccc(F)c(C(F)(F)F)c5)C4)C3)c12 [Example 121, 1-(4-fluoro-3-(trifluoromethyl)phenyl)-3-(2-(1-methyl-1H-imidazo[1,2-b]pyrazole-7-carbonyl)-2-azaspiro[3.3]heptan-6-yl)urea]
Ki (DDR1): < 5 nM | Ki (DDR2): 5 to 25 nM

Cc1nn(C)cc1-c1ccc2c(C(=O)N3CC4(CC(N(C)C(=O)Nc5cncc(C(F)(F)F)c5)C4)C3)cnn2c1 [Example 258, 1-(2-(6-(1,3-dimethyl-1H-pyrazol-4-yl)pyrazolo[1,5-a]pyridine-3-carbonyl)-2-azaspiro[3.3]heptan-6-yl)-1-methyl-3-(5-(trifluoromethyl)pyridin-3-yl)urea]
Ki (DDR1): < 5 nM | Ki (DDR2): 5 to 25 nM

CCOc1ccc(C(F)(F)F)cc1NC(=O)NC1CC2(C1)CN(C(=O)c1cnn3ccn(C)c13)C2 [Example 298, 1-(2-ethoxy-5-(trifluoromethyl)phenyl)-3-(2-(1-methyl-1H-imidazo[1,2-b]pyrazole-7-carbonyl)-2-azaspiro[3.3]heptan-6-yl)urea]
Ki (DDR1): < 5 nM | Ki (DDR2): < 5 nM

Cn1ccn2ncc(C(=O)N3CC4(CC(NC(=O)Nc5cccc(CC(F)(F)F)c5)C4)C3)c12 [Example 34, 1-(2-(1-methyl-1H-imidazo[1,2-b]pyrazole-7-carbonyl)-2-azaspiro[3.3]heptan-6-yl)-3-(3-(2,2,2-trifluoroethyl)phenyl)urea]
Ki (DDR1): < 5 nM | Ki (DDR2): < 5 nM

CN(C(=O)Nc1cc(C(F)F)ccn1)C1CC2(C1)CN(C(=O)c1cnn3ccsc13)C2 [Example 255, 3-(4-(difluoromethyl)pyridin-2-yl)-1-methyl-1-(2-(pyrazolo[5,1-b]thiazole-7-carbonyl)-2-azaspiro[3.3]heptan-6-yl)urea]
Ki (DDR1): < 5 nM | Ki (DDR2): 5 to 25 nM

O=C(Nc1cccc(C(F)(F)F)c1)NC1CC2(C1)CN(c1ccnc3[nH]ncc13)C2 [Example 15, 1-(2-(1H-pyrazolo[3,4-b]pyridin-4-yl)-2-azaspiro[3.3]heptan-6-yl)-3-(3-(trifluoromethyl)phenyl)urea]
Ki (DDR1): < 5 nM | Ki (DDR2): < 5 nM

O=C(Nc1cccc(OC(F)(F)F)c1)NC1CC2(C1)CN(C(=O)c1cnn3ccsc13)C2 [Example 21, 1-(2-(pyrazolo[5,1-b]thiazole-7-carbonyl)-2-azaspiro[3.3]heptan-6-yl)-3-(3-(trifluoromethoxy)phenyl)urea]
Ki (DDR1): < 5 nM | Ki (DDR2): < 5 nM

Cc1ncc(C(F)(F)F)cc1NC(=O)NC1CC2(C1)CN(C(=O)c1cnn3ccn(C)c13)C2 [Example 171, 1-(2-(1-methyl-1H-imidazo[1,2-b]pyrazole-7-carbonyl)-2-azaspiro[3.3]heptan-6-yl)-3-(2-methyl-5-(trifluoromethyl)pyridin-3-yl)urea]
Ki (DDR1): < 5 nM | Ki (DDR2): 5 to 25 nM

CN(C(=O)Nc1cccc(C2(C(F)(F)F)CC2)c1)C1CC2(C1)CN(C(=O)c1cnn3ccn(C)c13)C2 [Example 198, 1-methyl-1-(2-(1-methyl-1H-imidazo[1,2-b]pyrazole-7-carbonyl)-2-azaspiro[3.3]heptan-6-yl)-3-(3-(1-(trifluoromethyl)cyclopropyl)phenyl)urea]
Ki (DDR1): < 5 nM | Ki (DDR2): < 5 nM

Cn1ccn2ncc(C(=O)N3CC4(CC(NC(=O)Nc5cc(C#N)cc(C(F)(F)F)c5)C4)C3)c12 [Example 39, 1-(3-cyano-5-(trifluoromethyl)phenyl)-3-(2-(1-methyl-1H-imidazo[1,2-b]pyrazole-7-carbonyl)-2-azaspiro[3.3]heptan-6-yl)urea]
Ki (DDR1): < 5 nM | Ki (DDR2): < 5 nM

CN(C(=O)Nc1cncc(OC(F)(F)F)c1)C1CC2(C1)CN(C(=O)c1cnn3ccncc13)C2 [Example 176, 1-methyl-1-(2-(pyrazolo[1,5-a]pyrazine-3-carbonyl)-2-azaspiro[3.3]heptan-6-yl)-3-(5-(trifluoromethoxy)pyridin-3-yl)urea]
Ki (DDR1): 5 to 25 nM | Ki (DDR2): 25 to 100 nM

CN(C(=O)Nc1cc(F)cc(C(F)(F)F)c1)C1CC2(C1)CN(C(=O)c1cnn3ccn(C)c13)C2 [Example 64, 3-(3-fluoro-5-(trifluoromethyl)phenyl)-1-methyl-1-(2-(1-methyl-1H-imidazo[1,2-b]pyrazole-7-carbonyl)-2-azaspiro[3.3]heptan-6-yl)urea]
Ki (DDR1): < 5 nM | Ki (DDR2): 5 to 25 nM

CSCCn1ccn2ncc(C(=O)N3CC4(CC(NC(=O)Nc5cccc(C(F)(F)F)c5)C4)C3)c12 [Example 194, 1-(2-(1-(2-(methylthio)ethyl)-1H-imidazo[1,2-b]pyrazole-7-carbonyl)-2-azaspiro[3.3]heptan-6-yl)-3-(3-(trifluoromethyl)phenyl)urea]
Ki (DDR1): < 5 nM | Ki (DDR2): 5 to 25 nM

Cc1cc(C(F)(F)F)cc(NC(=O)N(C)C2CC3(C2)CN(C(=O)c2cnn4ccn(C)c24)C3)c1F [Example 193, 3-(2-fluoro-3-methyl-5-(trifluoromethyl)phenyl)-1-methyl-1-(2-(1-methyl-1H-imidazo[1,2-b]pyrazole-7-carbonyl)-2-azaspiro[3.3]heptan-6-yl)urea]
Ki (DDR1): < 5 nM | Ki (DDR2): 5 to 25 nM

Cn1ccn2ncc(C(=O)N3CC4(CC(NC(=O)Nc5cc(OC(F)(F)F)ccn5)C4)C3)c12 [Example 73, 1-(2-(1-methyl-1H-imidazo[1,2-b]pyrazole-7-carbonyl)-2-azaspiro[3.3]heptan-6-yl)-3-(4-(trifluoromethoxy)pyridin-2-yl)urea]
Ki (DDR1): < 5 nM | Ki (DDR2): 5 to 25 nM

CN(C)Cc1ccc(NC(=O)NC2CC3(C2)CN(C(=O)c2ncnc4ccsc24)C3)cc1C(F)(F)F [Example 112, 1-(4-((dimethylamino)methyl)-3-(trifluoromethyl)phenyl)-3-(2-(thieno[3,2-d]pyrimidine-4-carbonyl)-2-azaspiro[3.3]heptan-6-yl)urea]
Ki (DDR1): < 5 nM | Ki (DDR2): 5 to 25 nM
